Target: T1, RIPK1 (Homo sapiens, UniProt Q13546)
T1 construct: AA 1–479, GST fusion
T1 sequence (Q13546 1-479): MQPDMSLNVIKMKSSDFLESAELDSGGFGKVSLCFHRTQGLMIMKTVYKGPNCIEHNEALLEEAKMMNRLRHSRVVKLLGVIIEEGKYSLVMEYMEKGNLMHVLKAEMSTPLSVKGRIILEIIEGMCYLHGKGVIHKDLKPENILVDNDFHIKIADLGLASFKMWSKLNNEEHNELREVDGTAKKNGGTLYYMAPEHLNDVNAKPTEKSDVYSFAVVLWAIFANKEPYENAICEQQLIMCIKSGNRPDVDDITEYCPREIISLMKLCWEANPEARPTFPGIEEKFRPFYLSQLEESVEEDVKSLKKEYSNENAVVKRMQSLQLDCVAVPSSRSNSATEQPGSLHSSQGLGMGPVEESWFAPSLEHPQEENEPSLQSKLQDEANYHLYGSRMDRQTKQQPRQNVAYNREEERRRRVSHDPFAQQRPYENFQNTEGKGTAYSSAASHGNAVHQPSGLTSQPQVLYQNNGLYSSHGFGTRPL
Test: ADP-Glo in vitro kinase assay with recombinant RIPK1 ([…] reduction at […])
Format: biochemical

CC(C)(C)c1cc(O)ccc1O [TBHQ]
inhibition at 100 µM: ~60%
